# Experimental data taken from US20210322442A1, “LONG-TERM RE-ABSORBABLE SU[…] WITH CONTROLED PRE-CONCENTRATED PHARMACOLOGICALLY ACTIVE POLYMER SUBSTANCE RELEASE FOR TREATING ENDOMETRIOSIS” (priority 2020, published 2021).
# Tests used:
# [1] = tested on: endometriosis; settings: cited from earlier work
# [2] = tested on: endometriosis; assay: clinical follow-up of about 1,000 patients treated with gestrinone implants; format: in vivo
# Method: Research was conducted to assess the effectiveness of using the gestrinone implants described here for the treatment of endometriosis. About 1,000 patients with different degrees of the disease were followed up in clinical practice and the dose used was 1 to 3 implants. […] In these patients, treatment can be used only.
structure (smiles),measurement,setting,value
C#C[C@]1(O)CC[C@H]2[C@@H]3CCC4=CC(=O)CCC4=C3C=C[C@@]21CC [gestrinone],"tolerability, oral dose",[1],up to 5 mg three times a week
same,carrier protein SHBG in the patient,"[2]; mechanism of action, stated with an increase in free circulating testosterone",reduction in the carrier protein SHBG
same,quality of life of patients,"[2]; observed in practice: mood, libido, reasoning and decision making capacity, lean mass",improves the quality of life of patients as a whole
same,free circulating testosterone,[2]; result of SHBG reduction,increase in free circulating testosterone
